# Source: PubChem BioAssay AID1259407 (Chemical Carcinogenesis Research Information System (CCRIS), 2018)
# Activity calls are given as the source filed them. The rule behind the calls is not given here.
# System: CCRIS mutagenicity, Ames/micronucleus/aberration tests
# Experiment: CCRIS mutagenicity studies
structure (smiles),measurement,setting,value
Nc1c2ccccc2cc2ccccc12,mutagenic call,"Test System: AMES SALMONELLA TYPHIMURIUM, Strain/Indicator: TA98, Metabolic Activation: RAT, LIVER, S-9, AROCLOR 1254 (2%), Method: STANDARD PLATE",active; positive
same,mutagenic call,"Test System: AMES SALMONELLA TYPHIMURIUM, Strain/Indicator: TA98, Metabolic Activation: RAT, LIVER, S-9, AROCLOR 1254 (4%), Method: STANDARD PLATE",active; positive
same,mutagenic call,"Test System: AMES SALMONELLA TYPHIMURIUM, Strain/Indicator: TA100, Metabolic Activation: RAT, LIVER, S-9, AROCLOR 1254 (2%), Method: STANDARD PLATE",active; positive
same,mutagenic call,"Test System: AMES SALMONELLA TYPHIMURIUM, Strain/Indicator: TA1535, Metabolic Activation: RAT, LIVER, S-9, AROCLOR 1254 (2%), Method: STANDARD PLATE",inactive; negative
same,mutagenic call,"Test System: AMES SALMONELLA TYPHIMURIUM, Strain/Indicator: TA1537, Metabolic Activation: RAT, LIVER, S-9, AROCLOR 1254 (2%), Method: STANDARD PLATE",active; positive
COc1cc(-c2ccc(N=C=O)c(OC)c2)ccc1N=C=O,mutagenic call,"Test System: AMES SALMONELLA TYPHIMURIUM, Strain/Indicator: TA98, Metabolic Activation: HAMSTER, LIVER, S-9, AROCLOR 1254, Method: STANDARD PLATE",active; positive
same,mutagenic call,"Test System: AMES SALMONELLA TYPHIMURIUM, Strain/Indicator: TA98, Metabolic Activation: HAMSTER, LIVER, S-9, Method: STANDARD PLATE",active; positive
same,mutagenic call,"Test System: AMES SALMONELLA TYPHIMURIUM, Strain/Indicator: TA98, Metabolic Activation: MOUSE, LIVER, S-9, AROCLOR 1254, Method: STANDARD PLATE",active; positive
same,mutagenic call,"Test System: AMES SALMONELLA TYPHIMURIUM, Strain/Indicator: TA98, Metabolic Activation: MOUSE, LIVER, S-9, Method: STANDARD PLATE",active; positive
same,mutagenic call,"Test System: AMES SALMONELLA TYPHIMURIUM, Strain/Indicator: TA98, Metabolic Activation: RAT, LIVER, S-9, AROCLOR 1254, Method: STANDARD PLATE",active; positive
same,mutagenic call,"Test System: AMES SALMONELLA TYPHIMURIUM, Strain/Indicator: TA98, Metabolic Activation: RAT, LIVER, S-9, Method: STANDARD PLATE",active; positive
same,mutagenic call,"Test System: AMES SALMONELLA TYPHIMURIUM, Strain/Indicator: TA100, Metabolic Activation: HAMSTER, LIVER, S-9, AROCLOR 1254, Method: STANDARD PLATE",inactive; negative
same,mutagenic call,"Test System: AMES SALMONELLA TYPHIMURIUM, Strain/Indicator: TA100, Metabolic Activation: HAMSTER, LIVER, S-9, Method: STANDARD PLATE",inactive; negative
same,mutagenic call,"Test System: AMES SALMONELLA TYPHIMURIUM, Strain/Indicator: TA100, Metabolic Activation: MOUSE, LIVER, S-9, AROCLOR 1254, Method: STANDARD PLATE",inactive; negative
same,mutagenic call,"Test System: AMES SALMONELLA TYPHIMURIUM, Strain/Indicator: TA100, Metabolic Activation: MOUSE, LIVER, S-9, Method: STANDARD PLATE",inactive; negative
same,mutagenic call,"Test System: AMES SALMONELLA TYPHIMURIUM, Strain/Indicator: TA100, Metabolic Activation: NONE, Method: STANDARD PLATE",inactive; negative
same,mutagenic call,"Test System: AMES SALMONELLA TYPHIMURIUM, Strain/Indicator: TA1535, Metabolic Activation: HAMSTER, LIVER, S-9, AROCLOR 1254, Method: STANDARD PLATE",inactive; negative
same,mutagenic call,"Test System: AMES SALMONELLA TYPHIMURIUM, Strain/Indicator: TA1535, Metabolic Activation: HAMSTER, LIVER, S-9, Method: STANDARD PLATE",inactive; negative
same,mutagenic call,"Test System: AMES SALMONELLA TYPHIMURIUM, Strain/Indicator: TA1535, Metabolic Activation: MOUSE, LIVER, S-9, AROCLOR 1254, Method: STANDARD PLATE",inactive; negative
same,mutagenic call,"Test System: AMES SALMONELLA TYPHIMURIUM, Strain/Indicator: TA1535, Metabolic Activation: MOUSE, LIVER, S-9, Method: STANDARD PLATE",inactive; negative
same,mutagenic call,"Test System: AMES SALMONELLA TYPHIMURIUM, Strain/Indicator: TA1535, Metabolic Activation: NONE, Method: STANDARD PLATE",inactive; negative
same,mutagenic call,"Test System: AMES SALMONELLA TYPHIMURIUM, Strain/Indicator: TA1535, Metabolic Activation: RAT, LIVER, S-9, AROCLOR 1254, Method: STANDARD PLATE",inactive; negative
same,mutagenic call,"Test System: AMES SALMONELLA TYPHIMURIUM, Strain/Indicator: TA1535, Metabolic Activation: RAT, LIVER, S-9, Method: STANDARD PLATE",inactive; negative
same,mutagenic call,"Test System: AMES SALMONELLA TYPHIMURIUM, Strain/Indicator: TA1537, Metabolic Activation: HAMSTER, LIVER, S-9, AROCLOR 1254, Method: STANDARD PLATE",inactive; negative
same,mutagenic call,"Test System: AMES SALMONELLA TYPHIMURIUM, Strain/Indicator: TA1537, Metabolic Activation: HAMSTER, LIVER, S-9, Method: STANDARD PLATE",inactive; negative
same,mutagenic call,"Test System: AMES SALMONELLA TYPHIMURIUM, Strain/Indicator: TA1537, Metabolic Activation: MOUSE, LIVER, S-9, AROCLOR 1254, Method: STANDARD PLATE",inactive; negative
same,mutagenic call,"Test System: AMES SALMONELLA TYPHIMURIUM, Strain/Indicator: TA1537, Metabolic Activation: MOUSE, LIVER, S-9, Method: STANDARD PLATE",inactive; negative
same,mutagenic call,"Test System: AMES SALMONELLA TYPHIMURIUM, Strain/Indicator: TA1537, Metabolic Activation: NONE, Method: STANDARD PLATE",inactive; negative
same,mutagenic call,"Test System: AMES SALMONELLA TYPHIMURIUM, Strain/Indicator: TA1537, Metabolic Activation: RAT, LIVER, S-9, AROCLOR 1254, Method: STANDARD PLATE",inactive; negative
same,mutagenic call,"Test System: AMES SALMONELLA TYPHIMURIUM, Strain/Indicator: TA1537, Metabolic Activation: RAT, LIVER, S-9, Method: STANDARD PLATE",inactive; negative
same,mutagenic call,"Test System: AMES SALMONELLA TYPHIMURIUM, Strain/Indicator: TA1538, Metabolic Activation: HAMSTER, LIVER, S-9, AROCLOR 1254, Method: STANDARD PLATE",active; positive
same,mutagenic call,"Test System: AMES SALMONELLA TYPHIMURIUM, Strain/Indicator: TA1538, Metabolic Activation: HAMSTER, LIVER, S-9, Method: STANDARD PLATE",active; positive
same,mutagenic call,"Test System: AMES SALMONELLA TYPHIMURIUM, Strain/Indicator: TA1538, Metabolic Activation: MOUSE, LIVER, S-9, AROCLOR 1254, Method: STANDARD PLATE",active; positive
same,mutagenic call,"Test System: AMES SALMONELLA TYPHIMURIUM, Strain/Indicator: TA1538, Metabolic Activation: MOUSE, LIVER, S-9, Method: STANDARD PLATE",active; positive
same,mutagenic call,"Test System: AMES SALMONELLA TYPHIMURIUM, Strain/Indicator: TA1538, Metabolic Activation: RAT, LIVER, S-9, AROCLOR 1254, Method: STANDARD PLATE",active; positive
same,mutagenic call,"Test System: AMES SALMONELLA TYPHIMURIUM, Strain/Indicator: TA1538, Metabolic Activation: RAT, LIVER, S-9, Method: STANDARD PLATE",active; positive
same,mutagenic call,"Test System: E. COLI, Strain/Indicator: WP2 UVRA, Metabolic Activation: HAMSTER, LIVER, S-9, AROCLOR 1254, Method: STANDARD PLATE",inactive; negative
same,mutagenic call,"Test System: E. COLI, Strain/Indicator: WP2 UVRA, Metabolic Activation: HAMSTER, LIVER, S-9, Method: STANDARD PLATE",inactive; negative
same,mutagenic call,"Test System: E. COLI, Strain/Indicator: WP2 UVRA, Metabolic Activation: MOUSE, LIVER, S-9, AROCLOR 1254, Method: STANDARD PLATE",inactive; negative
same,mutagenic call,"Test System: E. COLI, Strain/Indicator: WP2 UVRA, Metabolic Activation: MOUSE, LIVER, S-9, Method: STANDARD PLATE",inactive; negative
same,mutagenic call,"Test System: E. COLI, Strain/Indicator: WP2 UVRA, Metabolic Activation: NONE, Method: STANDARD PLATE",inactive; negative
same,mutagenic call,"Test System: E. COLI, Strain/Indicator: WP2 UVRA, Metabolic Activation: RAT, LIVER, S-9, AROCLOR 1254, Method: STANDARD PLATE",inactive; negative
same,mutagenic call,"Test System: E. COLI, Strain/Indicator: WP2 UVRA, Metabolic Activation: RAT, LIVER, S-9, Method: STANDARD PLATE",inactive; negative
CC1CNCC(C)O1 (configuration not stated),mutagenic call,"Test System: AMES SALMONELLA TYPHIMURIUM, Strain/Indicator: TA98, Metabolic Activation: HAMSTER, LIVER, S-9, AROCLOR 1254, Method: PREINCUBATION",inactive; negative
same,mutagenic call,"Test System: AMES SALMONELLA TYPHIMURIUM, Strain/Indicator: TA98, Metabolic Activation: NONE, Method: PREINCUBATION",inactive; negative
same,mutagenic call,"Test System: AMES SALMONELLA TYPHIMURIUM, Strain/Indicator: TA98, Metabolic Activation: RAT, LIVER, S-9, AROCLOR 1254, Method: PREINCUBATION",inactive; negative
same,mutagenic call,"Test System: AMES SALMONELLA TYPHIMURIUM, Strain/Indicator: TA100, Metabolic Activation: HAMSTER, LIVER, S-9, AROCLOR 1254, Method: PREINCUBATION",inactive; negative
same,mutagenic call,"Test System: AMES SALMONELLA TYPHIMURIUM, Strain/Indicator: TA100, Metabolic Activation: NONE, Method: PREINCUBATION",inactive; negative
same,mutagenic call,"Test System: AMES SALMONELLA TYPHIMURIUM, Strain/Indicator: TA100, Metabolic Activation: RAT, LIVER, S-9, AROCLOR 1254, Method: PREINCUBATION",inactive; negative
same,mutagenic call,"Test System: AMES SALMONELLA TYPHIMURIUM, Strain/Indicator: TA1537, Metabolic Activation: HAMSTER, LIVER, S-9, AROCLOR 1254, Method: PREINCUBATION",inactive; negative
same,mutagenic call,"Test System: AMES SALMONELLA TYPHIMURIUM, Strain/Indicator: TA1537, Metabolic Activation: NONE, Method: PREINCUBATION",inactive; negative
same,mutagenic call,"Test System: AMES SALMONELLA TYPHIMURIUM, Strain/Indicator: TA1537, Metabolic Activation: RAT, LIVER, S-9, AROCLOR 1254, Method: PREINCUBATION",inactive; negative
